Reference: ChEMBL document CHEMBL1166002, “Vanchrobactin and anguibactin siderophores produced by Vibrio sp. DS40M4” (J Nat Prod, 2010)

These molecules were tested on PC-3 (assay: Cytotoxicity against human PC3 cells by MTT assay).
Format: functional, cell-based

SMILES | IC50
N=C(N)NCCC[C@@H](NC(=O)c1cccc(O)c1O)C(=O)N[C@@H](CO)C(=O)O [VANCHROBACTIN] | Not Active
N=C(N)NCCC[C@@H](NC(=O)c1cccc(O)c1O)C(=O)N[C@@H](COC(=O)[C@H](CO)NC(=O)[C@@H](CCCNC(=N)N)NC(=O)c1cccc(O)c1O)C(=O)O [DIVANCHROBACTIN] | Not Active
N=C(N)NCCC[C@@H](NC(=O)c1cccc(O)c1O)C(=O)N[C@@H](COC(=O)[C@H](COC(=O)[C@H](CO)NC(=O)[C@@H](CCCNC(=N)N)NC(=O)c1cccc(O)c1O)NC(=O)[C@@H](CCCNC(=N)N)NC(=O)c1cccc(O)c1O)C(=O)O [TRIVANCHROBACTIN] | Not Active
